# Experimental data taken from patent US20220257518A1, “LONG-LASTING FORMULATION CONTAINING RIVASTIGMINE, AND METHOD FOR PREPARING SAME” (priority 2019, published 2022).
# Assay: Rivastigmine and pamoate contents in rivastigmine pamoate (HPLC)
# Assay type: physicochemical
# Settings: HPLC 210 nm
# Protocol: In order to measure the contents of rivastigmine and pamoate of rivastigmine pamoate prepared in Example 1, the sample 10 mg was completely dissolved with dimethyl sulfoxide, and then was diluted into a mobile phase. The diluted solution 20 uL was injected to HPLC and was measured at a detection wavelength 210 nm. The column used in the present measurement was Inertsil ODS-3, 5 um, 4.6×250 mm, and the mobile phase was used by mixing phosphate buffer solution (pH 6.0) and acetonitrile at a ratio of 65:35 (v/v).
Molecule,Pamoate content of rivastigmine pamoate [% by weight],Rivastigmine content of rivastigmine pamoate [% by weight]
rivastigmine pamoate [Sample 1-1],40.49,57.47
rivastigmine pamoate [Sample 1-2],40.47,52.45
rivastigmine pamoate [Sample 1-3],53.79,41.10
rivastigmine pamoate [Sample 1-4],68.93,32.19

# Assay: not given
# Settings: cited from earlier work
row,Molecule,Solubility in water [µg/mL]
1,"CCN(C)C(=O)Oc1cccc([C@H](C)N(C)C)c1 [rivastigmine freebase, rivastigmine]",≤ 5000
